# From patent publication US10174035B2, “6-morpholinyl-2-pyrazolyl-9H-purine derivatives and their use as PI3K inhibitors” (Daiichi Sankyo Company, Limited, priority 2015, dated 2019)
# Where two headings read alike, the source gives them in different places.
# Tests used:
# [1] = molecular target: recombinant PI3K δ enzyme (Homo sapiens (Human), UniProt O00329); test: In vitro enzyme assay (Kinase-Glo luminescent kinase assay), PI3Kδ; format: biochemical
# Outline: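 Each recombinant human PI3K isoform at 2.29 μg/mL with 60 μM PIP2 and 10 μM ATP in HEPES pH 7.4, NaCl, CHAPS, MgCl2, DTT, 2 hours at room temperature. Remaining ATP read by Kinase-Glo luminescence relative to no-enzyme blanks.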
# PI3Kα = PI3Kα (Homo sapiens (Human), UniProt P42336); test: In vitro enzyme assay (Kinase-Glo), selectivity, PI3Kα; format: biochemical; conditions: enzyme 2.29 μg/mL; ATP 10 μM; PIP2 60 μM; 2 hours
# Procedure: (§1) The Kinase-Glo luminescent kinase assay kit (from Promega) was used to measure kinase activity. In this assay, amount of ATP remaining in solution following a kinase reaction is measured. The effect of compounds on PI3Kδ inhibition was carried out by adding 2.29 μg/ml of recombinant PI3K δ enzyme (Proteros, Germany) to reaction mixture containing assay buffer (50 mM HEPES, pH 7.4, 50 mM NaCl, 0.05% CHAPS) supplemented with 10 mM MgCl2, 5 mM DTT, 60 μM Phosphatidyl inositol bisphosphate (PIP2) and 10 μM ATP in the absence or presence of different concentrations of the compounds in a final volume of 15 μl/well, in a 384 well plate. The reaction mixture was incubated for 2 hours at room temperature. At the end of incubation period the equal volume of Kinase-Glo plus (Promega, V3772), was added per well and the luminescence was measured after incubating for 10 minutes at room temperature in dark. Results were calculated by measuring the luminescence units of test samples to blanks containing no enzyme.
# (§2) The compounds of the present invention were tested for their selectivity for PI3Kδ over PI3Kα, PI3Kβ and PI3Kγ following the above assay using specific recombinant enzymes (Proteros, Germany) for each kinase. Assay condition of kinase assay (PI3Kα, PI3Kβ, PI3Kγ and PI3Kδ) was as follows. Enzyme: 2.29 μg/mL; ATP: 10 μM; PIP2 substrate: 60 μM and Reaction Time: 2 hours.
# PI3Kβ = PI3Kβ (Homo sapiens (Human), UniProt P42338); test: In vitro enzyme assay (Kinase-Glo), selectivity, PI3Kβ; format: biochemical; conditions: enzyme 2.29 μg/mL; ATP 10 μM; PIP2 60 μM; 2 hours
# Procedure: as §1, §2
# PI3Kγ = PI3Kγ (Homo sapiens (Human), UniProt P48736); test: In vitro enzyme assay (Kinase-Glo), selectivity, PI3Kγ; format: biochemical; conditions: enzyme 2.29 μg/mL; ATP 10 μM; PIP2 60 μM; 2 hours
# Procedure: The Kinase-Glo luminescent kinase assay kit (from Promega) was used to measure kinase activity. In this assay, amount of ATP remaining in solution following a kinase reaction is measured. […] The reaction mixture was incubated for 2 hours at room temperature. At the end of incubation period the equal volume of Kinase-Glo plus (Promega, V3772), was added per well and the luminescence was measured after incubating for 10 minutes at room temperature in dark. Results were calculated by measuring the luminescence units of test samples to blanks containing no enzyme.
# The compounds of the present invention were tested for their selectivity for PI3Kδ over PI3Kα, PI3Kβ and PI3Kγ following the above assay using specific recombinant enzymes (Proteros, Germany) for each kinase. Assay condition of kinase assay (PI3Kα, PI3Kβ, PI3Kγ and PI3Kδ) was as follows.
# [2] = test system: IFN-γ release in mouse splenocytes; test: Phytohaemagglutinin (PHA)-induced interferon (IFN)-gamma release in mouse splenocytes; parameters: species or system C57BL/6 mouse; conditions: Splenocyte, PHA (10 μg/ml) for 48 hours, IFN-γ by ELISA, read-out: Cell Based IC50
# Procedure: Effect of compounds on mitogen-induced IFN-γ release in mouse splenocytes was used to evaluate their potency in cell-based assay system [Blood (2010) 115: 2203-2213; Current Protocols in Immunology (2004) 3.12.1-3.12.20].
# Mouse splenocytes were obtained from the spleen of a C57BL/6 mouse and plated at a density of 0.25 million cells/well in a 96 well tissue culture plate. The effect of the compounds to inhibit IFN-γ release was evaluated by treating the splenocytes with various concentrations of the test compounds followed by stimulation with PHA (10 μg/ml) for 48 hours. The IFN-γ release in the cell culture supernatant was quantified by ELISA as per the manufacturer's protocol (BD Biosciences, #555138).
# [3] = enzyme 2.29 μg/mL, ATP 10 μM, PIP2 60 μM, 2 hours
# Chain of recombinant PI3K δ enzyme (O00329 whole entry, species assumed, canonical isoform): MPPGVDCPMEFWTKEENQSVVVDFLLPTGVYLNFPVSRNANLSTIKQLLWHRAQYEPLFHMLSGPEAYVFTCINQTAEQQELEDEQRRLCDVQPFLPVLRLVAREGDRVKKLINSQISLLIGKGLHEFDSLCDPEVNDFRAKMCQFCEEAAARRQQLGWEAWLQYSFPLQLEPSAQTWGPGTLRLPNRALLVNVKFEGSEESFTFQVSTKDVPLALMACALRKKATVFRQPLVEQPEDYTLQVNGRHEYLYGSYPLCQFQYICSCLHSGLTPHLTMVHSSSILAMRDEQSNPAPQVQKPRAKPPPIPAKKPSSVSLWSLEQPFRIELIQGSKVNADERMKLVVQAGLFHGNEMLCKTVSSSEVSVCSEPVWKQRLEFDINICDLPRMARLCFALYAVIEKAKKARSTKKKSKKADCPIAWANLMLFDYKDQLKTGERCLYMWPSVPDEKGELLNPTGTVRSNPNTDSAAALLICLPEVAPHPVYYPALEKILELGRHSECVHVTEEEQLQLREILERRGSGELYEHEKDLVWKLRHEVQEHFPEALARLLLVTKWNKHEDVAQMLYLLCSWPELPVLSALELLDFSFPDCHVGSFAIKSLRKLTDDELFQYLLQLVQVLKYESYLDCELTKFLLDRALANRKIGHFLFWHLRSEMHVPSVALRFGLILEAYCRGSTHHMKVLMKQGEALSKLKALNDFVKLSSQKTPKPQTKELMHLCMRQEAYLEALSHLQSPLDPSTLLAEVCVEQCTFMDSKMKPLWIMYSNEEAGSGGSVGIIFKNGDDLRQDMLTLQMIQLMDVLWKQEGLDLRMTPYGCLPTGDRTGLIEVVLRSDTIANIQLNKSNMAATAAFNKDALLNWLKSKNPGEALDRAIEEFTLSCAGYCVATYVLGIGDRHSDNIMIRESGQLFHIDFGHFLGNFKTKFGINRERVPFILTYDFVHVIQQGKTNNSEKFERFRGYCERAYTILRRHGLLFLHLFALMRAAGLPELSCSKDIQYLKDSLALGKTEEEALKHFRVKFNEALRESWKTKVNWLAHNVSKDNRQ
# Chain of recombinant PI3K δ enzyme (P27986 whole entry partner, species assumed, canonical isoform): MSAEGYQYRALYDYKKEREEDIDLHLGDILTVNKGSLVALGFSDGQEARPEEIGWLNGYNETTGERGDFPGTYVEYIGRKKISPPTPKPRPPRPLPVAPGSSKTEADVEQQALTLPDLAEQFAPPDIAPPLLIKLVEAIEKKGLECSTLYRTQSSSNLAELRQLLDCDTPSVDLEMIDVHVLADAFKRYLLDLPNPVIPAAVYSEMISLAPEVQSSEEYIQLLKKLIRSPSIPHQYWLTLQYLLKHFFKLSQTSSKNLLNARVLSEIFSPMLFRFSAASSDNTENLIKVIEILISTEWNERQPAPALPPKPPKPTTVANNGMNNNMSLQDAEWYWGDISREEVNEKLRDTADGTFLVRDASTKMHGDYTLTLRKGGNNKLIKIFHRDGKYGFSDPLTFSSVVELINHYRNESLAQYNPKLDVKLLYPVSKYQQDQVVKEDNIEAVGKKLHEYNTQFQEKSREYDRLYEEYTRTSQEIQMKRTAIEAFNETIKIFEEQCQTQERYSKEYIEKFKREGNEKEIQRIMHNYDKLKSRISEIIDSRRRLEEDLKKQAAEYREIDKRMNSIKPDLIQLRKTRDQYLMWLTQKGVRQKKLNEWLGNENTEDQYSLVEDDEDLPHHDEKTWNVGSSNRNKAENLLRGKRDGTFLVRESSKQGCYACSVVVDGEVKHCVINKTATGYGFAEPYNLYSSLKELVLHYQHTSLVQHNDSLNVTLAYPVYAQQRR
# Chain of PI3Kβ (P42338 whole entry, species assumed): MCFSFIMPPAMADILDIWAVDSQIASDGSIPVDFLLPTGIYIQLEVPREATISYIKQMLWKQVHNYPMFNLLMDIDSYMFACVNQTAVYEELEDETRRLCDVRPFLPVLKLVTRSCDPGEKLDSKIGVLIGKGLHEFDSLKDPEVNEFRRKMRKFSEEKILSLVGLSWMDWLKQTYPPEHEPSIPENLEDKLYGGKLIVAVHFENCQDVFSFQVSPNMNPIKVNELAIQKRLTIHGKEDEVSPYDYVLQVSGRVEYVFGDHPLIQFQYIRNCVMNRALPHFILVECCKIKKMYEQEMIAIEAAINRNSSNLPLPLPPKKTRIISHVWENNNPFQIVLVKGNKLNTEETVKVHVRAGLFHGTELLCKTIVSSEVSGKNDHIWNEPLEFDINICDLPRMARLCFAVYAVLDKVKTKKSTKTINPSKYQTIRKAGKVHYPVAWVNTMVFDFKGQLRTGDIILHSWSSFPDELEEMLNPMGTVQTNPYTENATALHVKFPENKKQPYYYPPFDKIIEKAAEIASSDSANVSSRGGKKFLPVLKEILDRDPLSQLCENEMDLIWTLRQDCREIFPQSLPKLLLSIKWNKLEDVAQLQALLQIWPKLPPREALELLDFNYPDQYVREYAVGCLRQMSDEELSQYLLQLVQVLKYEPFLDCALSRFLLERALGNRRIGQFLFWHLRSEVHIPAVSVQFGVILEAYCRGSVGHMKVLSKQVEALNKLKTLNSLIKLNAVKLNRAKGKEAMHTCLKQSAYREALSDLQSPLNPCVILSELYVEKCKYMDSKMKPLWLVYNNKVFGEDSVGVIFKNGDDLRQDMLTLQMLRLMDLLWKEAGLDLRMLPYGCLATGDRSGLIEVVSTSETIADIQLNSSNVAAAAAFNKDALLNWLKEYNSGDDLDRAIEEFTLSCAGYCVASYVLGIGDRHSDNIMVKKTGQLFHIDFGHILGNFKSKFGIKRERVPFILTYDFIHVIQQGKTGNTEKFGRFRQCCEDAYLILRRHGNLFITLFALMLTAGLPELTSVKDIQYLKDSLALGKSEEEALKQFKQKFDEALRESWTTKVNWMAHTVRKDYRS
# Chain of PI3Kβ (P27986 whole entry partner, species assumed): as the sequence (P27986 whole entry partner, species assumed, canonical isoform) above
# Chain of PI3Kα (P42336 whole entry, species assumed): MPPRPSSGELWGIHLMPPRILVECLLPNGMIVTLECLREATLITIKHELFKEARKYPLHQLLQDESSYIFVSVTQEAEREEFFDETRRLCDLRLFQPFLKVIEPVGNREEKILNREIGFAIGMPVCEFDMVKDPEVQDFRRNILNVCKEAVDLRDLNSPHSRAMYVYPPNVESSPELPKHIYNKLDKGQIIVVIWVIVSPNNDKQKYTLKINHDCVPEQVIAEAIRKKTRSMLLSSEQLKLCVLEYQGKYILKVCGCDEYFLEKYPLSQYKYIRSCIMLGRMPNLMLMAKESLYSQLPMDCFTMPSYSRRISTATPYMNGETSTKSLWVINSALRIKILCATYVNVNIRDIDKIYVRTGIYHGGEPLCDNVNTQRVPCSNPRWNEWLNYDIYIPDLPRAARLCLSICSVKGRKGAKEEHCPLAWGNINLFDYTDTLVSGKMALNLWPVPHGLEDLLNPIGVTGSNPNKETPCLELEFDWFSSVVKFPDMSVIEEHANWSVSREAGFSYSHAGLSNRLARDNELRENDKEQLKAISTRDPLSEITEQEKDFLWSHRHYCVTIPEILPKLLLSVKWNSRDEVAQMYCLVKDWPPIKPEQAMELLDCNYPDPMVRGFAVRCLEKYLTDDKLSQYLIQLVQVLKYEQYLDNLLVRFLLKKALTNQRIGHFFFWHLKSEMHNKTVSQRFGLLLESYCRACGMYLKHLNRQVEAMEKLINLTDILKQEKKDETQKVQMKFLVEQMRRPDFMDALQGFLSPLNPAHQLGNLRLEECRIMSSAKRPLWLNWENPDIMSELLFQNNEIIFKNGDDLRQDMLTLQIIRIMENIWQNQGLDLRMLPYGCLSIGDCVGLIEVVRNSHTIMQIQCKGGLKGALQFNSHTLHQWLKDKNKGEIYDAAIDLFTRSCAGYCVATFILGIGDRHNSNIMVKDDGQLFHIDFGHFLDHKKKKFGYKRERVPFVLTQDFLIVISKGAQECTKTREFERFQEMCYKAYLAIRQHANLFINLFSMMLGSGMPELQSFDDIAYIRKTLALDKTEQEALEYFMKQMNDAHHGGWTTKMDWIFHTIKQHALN
# Chain of PI3Kα (P27986 whole entry partner, species assumed): as the sequence (P27986 whole entry partner, species assumed, canonical isoform) above
# Chain of PI3Kγ (P48736 whole entry, species assumed): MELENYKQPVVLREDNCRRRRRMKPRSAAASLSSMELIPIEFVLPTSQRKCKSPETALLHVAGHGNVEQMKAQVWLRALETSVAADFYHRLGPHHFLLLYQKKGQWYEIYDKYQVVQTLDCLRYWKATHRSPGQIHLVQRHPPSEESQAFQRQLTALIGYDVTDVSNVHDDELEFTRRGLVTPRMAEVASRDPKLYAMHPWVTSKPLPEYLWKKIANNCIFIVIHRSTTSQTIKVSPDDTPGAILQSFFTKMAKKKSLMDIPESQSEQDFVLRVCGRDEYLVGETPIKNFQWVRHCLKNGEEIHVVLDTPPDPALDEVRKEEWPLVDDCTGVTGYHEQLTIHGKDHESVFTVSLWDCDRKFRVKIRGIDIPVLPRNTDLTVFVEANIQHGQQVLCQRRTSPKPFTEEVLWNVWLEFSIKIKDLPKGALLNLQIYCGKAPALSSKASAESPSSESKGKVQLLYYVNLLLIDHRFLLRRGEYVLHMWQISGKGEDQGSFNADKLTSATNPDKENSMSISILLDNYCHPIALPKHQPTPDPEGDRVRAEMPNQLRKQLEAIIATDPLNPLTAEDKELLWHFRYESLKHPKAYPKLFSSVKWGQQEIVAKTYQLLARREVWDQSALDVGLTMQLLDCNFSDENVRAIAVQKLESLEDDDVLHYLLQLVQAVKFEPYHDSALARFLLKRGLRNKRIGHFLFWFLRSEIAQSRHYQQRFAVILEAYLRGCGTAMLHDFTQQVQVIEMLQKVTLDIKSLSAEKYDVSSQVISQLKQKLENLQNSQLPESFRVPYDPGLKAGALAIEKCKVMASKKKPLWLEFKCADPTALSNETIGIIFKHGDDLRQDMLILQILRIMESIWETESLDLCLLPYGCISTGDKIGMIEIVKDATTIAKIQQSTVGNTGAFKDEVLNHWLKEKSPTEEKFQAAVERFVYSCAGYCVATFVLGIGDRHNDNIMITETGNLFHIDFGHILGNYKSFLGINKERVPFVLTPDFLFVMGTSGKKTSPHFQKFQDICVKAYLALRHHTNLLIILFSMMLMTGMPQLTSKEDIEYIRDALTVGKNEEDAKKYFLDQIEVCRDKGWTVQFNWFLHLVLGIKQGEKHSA
Compound,IC50 [1],"IC50 [1, 3]",IC50 (PI3Kα),IC50 (PI3Kβ),IC50 (PI3Kγ),IC50 [2]
"Cc1nn(C)cc1-c1nc(N2CCOCC2)c2nc(C(=O)N3CCN(C(C)(C)C(N)=O)CC3)[nH]c2n1 [compound 8, 2-(4-{[2-(1,3-Dimethyl-1H-pyrazol-4-yl)-6-(morpholin-4-yl)-9H-purin-8-yl]carbonyl}piperazin-1-yl)-2-methylpropanamide]",10 nM,10 nM,6480 nM,> 1000 nM,6540 nM,422 nM
"Cn1cc(-c2nc(N3CCOCC3)c3nc(C(=O)N4CCC(C(C)(C)O)CC4)[nH]c3n2)cn1 [compound 14, [4-(2-Hydroxypropan-2-yl)piperidin-1-yl][2-(1-methyl-1H-pyrazol-4-yl)-6-(morpholin-4-yl)-9H-purin-8-yl]methanone]",16 nM,16 nM,> 1000 nM,> 10000 nM,584 nM,810 nM
"O=C(c1nc2c(N3CCOCC3)nc(-c3c[nH]nc3C(F)(F)F)nc2[nH]1)N1CCC(N2CCOCC2)CC1 [compound 19, [4-(Morpholin-4-yl)piperidin-1-yl]{6-(morpholin-4-yl)-2-[3-(trifluoromethyl)-1H-pyrazol-4-yl]-9H-purin-8-yl}methanone]",13 nM,13 nM,4050 nM,> 10000 nM,5660 nM,192 nM
"Cc1nn(C)cc1-c1nc(N2CCOCC2)c2nc(C(=O)N3CCC(N4CCOCC4)CC3)[nH]c2n1 [compound 41, [2-(1,3-Dimethyl-1H-pyrazol-4-yl)-6-(morpholin-4-yl)-9H-purin-8-yl][4-(morpholin-4-yl)piperidin-1-yl]methanone]",14 nM,14 nM,8820 nM,> 10000 nM,2100 nM,225 nM
"CN1CCCC1CCNC(=O)c1nc2c(N3CCOCC3)nc(-c3cnn(C)c3)nc2[nH]1 (stereo not shown) [compound 64, 2-(1-Methyl-1H-pyrazol-4-yl)-N-{2-[1-methylpyrrolidin-2-yl]ethyl}-6-(morpholin-4-yl)-9H-purine-8-carboxamide]",17 nM,17 nM,984 nM,> 10000 nM,6130 nM,112 nM
"C[C@@H]1CN(C2CCN(C(=O)c3nc4c(N5CCOCC5)nc(-c5cn[nH]c5)nc4[nH]3)CC2)C[C@H](C)O1 [compound 65, {4-[cis-2,6-Dimethylmorpholin-4-yl]piperidin-1-yl}[6-(morpholin-4-yl)-2-(1H-pyrazol-4-yl)-9H-purin-8-yl]methanone]",,,986 nM,> 10000 nM,9770 nM,79 nM
"Cn1cc(-c2nc(N3CCOCC3)c3nc(C(=O)NCCCN4CCOCC4)n(C)c3n2)cn1 [compound 67, 9-Methyl-2-(1-methyl-1H-pyrazol-4-yl)-6-(morpholin-4-yl)-N-[3-(morpholin-4-yl)propyl]-9H-purine-8-carboxamide]",11 nM,11 nM,> 1000 nM,> 10000 nM,> 1000 nM,27 nM
"Cn1cc(-c2nc(N3CCOCC3)c3nc(C(=O)NCCCN4CCCC4=O)[nH]c3n2)cn1 [compound 68, 2-(1-Methyl-1H-pyrazol-4-yl)-6-(morpholin-4-yl)-N-[3-(2-oxopyrrolidin-1-yl)propyl]-9H-purine-8-carboxamide]",17 nM,17 nM,> 1000 nM,> 10000 nM,> 1000 nM,296 nM
"O=C(c1nc2c(N3CCOCC3)nc(-c3cn[nH]c3)nc2[nH]1)N1CCC2(CC1)COC2 [compound 72, [6-(Morpholin-4-yl)-2-(1H-pyrazol-4-yl)-9H-purin-8-yl](2-oxa-7-azaspiro[3.5]non-7-yl)methanone]",18 nM,18 nM,> 1000 nM,> 10000 nM,> 1000 nM,333 nM
"C[C@@H]1CN(CCCNC(=O)c2nc3c(N4CCOCC4)nc(-c4cnn(C)c4)nc3[nH]2)C[C@H](C)O1 [compound 75, N-{3-[cis-2,6-dimethylmorpholin-4-yl]propyl}-2-(1-methyl-1H-pyrazol-4-yl)-6-(morpholin-4-yl)-9H-purine-8-carboxamide]",18 nM,,> 1000 nM,> 10000 nM,> 1000 nM,84 nM
"Cn1cc(-c2nc3[nH]c(C(=O)N4CCC5(CC4)COC5)nc3c(N3CCOCC3)c2F)cn1 [compound 79, [6-Fluoro-5-(1-methyl-1H-pyrazol-4-yl)-7-(morpholin-4-yl)-3H-imidazo[4,5-b]pyridin-2-yl](2-oxa-7-azaspiro[3.5]non-7-yl)methanone]",20 nM,20 nM,> 1000 nM,> 10000 nM,> 1000 nM,13 nM
"Cn1cc(-c2nc3[nH]c(C(=O)N4CCN(C(C)(C)C(N)=O)CC4)nc3c(N3CCOCC3)c2F)cn1 [compound 82, 2-(4-{[6-Fluoro-5-(1-methyl-1H-pyrazol-4-yl)-7-(morpholin-4-yl)-3H-imidazo[4,5-b]pyridin-2-yl]carbonyl}piperazin-1-yl)-2-methylpropanamide]",11 nM,11 nM,> 1000 nM,> 10000 nM,> 1000 nM,346 nM
"Cc1nn(C)cc1-c1nc2[nH]c(C(=O)N3CCC(C(N)=O)CC3)nc2c(N2CCOCC2)c1F [compound 85, 1-{[5-(1,3-Dimethyl-1H-pyrazol-4-yl)-6-fluoro-7-(morpholin-4-yl)-3H-imidazo[4,5-b]pyridin-2-yl]carbonyl}piperidine-4-carboxamide]",19 nM,19 nM,> 1000 nM,> 10000 nM,> 1000 nM,1270 nM
"Cc1nn(C)cc1-c1nc2[nH]c(C(=O)N3CCC(O)CC3)nc2c(N2CCOCC2)c1F [compound 86, [5-(1,3-Dimethyl-1H-pyrazol-4-yl)-6-fluoro-7-(morpholin-4-yl)-3H-imidazo[4,5-b]pyridin-2-yl](4-hydroxypiperidin-1-yl)methanone]",27 nM,27 nM,> 1000 nM,> 10000 nM,8460 nM,222 nM
"Cn1cc(-c2nc3[nH]c(C(=O)N4CCC(N5CCOCC5)CC4)nc3c(N3CCOCC3)c2F)cn1 [compound 98, [6-Fluoro-5-(1-methyl-1H-pyrazol-4-yl)-7-(morpholin-4-yl)-3H-imidazo[4,5-b]pyridin-2-yl][4-(morpholin-4-yl)piperidin-1-yl]methanone]",6 nM,6 nM,> 10000 nM,> 10000 nM,> 10000 nM,43 nM
"Cc1nn(C)cc1-c1cc(N2CCOCC2)c2nc(C(=O)N3CCC(N4C[C@@H](C)O[C@@H](C)C4)CC3)[nH]c2n1 [compound 113, {4-[cis-2,6-Dimethylmorpholin-4-yl]piperidin-1-yl}[5-(1,3-dimethyl-1H-pyrazol-4-yl)-7-(morpholin-4-yl)-3H-imidazo[4,5-b]pyridin-2-yl]methanone]",,,> 1000 nM,1150 nM,> 1000 nM,7 nM
